Test results as given in article PMC12090182, “Repurposing of the RIPK1-Selective Benzo[1,4]oxazepin-4-one Scaffold for the Development of a Type III LIMK1/2 Inhibitor” (ACS Chemical Biology, 2025).

Molecular target: 468 kinases including some pathogenic mutants (Mycobacterium tuberculosis, UniProt P9WI81)
Assay: biochemical
Type: binding

`CN1C(=O)[C@@H](N2CCc3c(nn(Cc4ccccc4)c3C(N)=O)C2=O)COc2cc(Cl)ccc21` [Compound 10, (S)-2-benzyl-6-(8-chloro-5-methyl-4-oxo-2,3,4,5-tetrahydrobenzo[b][1,4]oxazepin-3-yl)-7-oxo-4,5,6,7-tetrahydro-2H-pyrazolo[3,4-c]pyridine-3-carboxamide] was tested, and the “Percent Control” value was 100%.
